Data as given in US20220401360A1, “Milrinone Composition and Method for Administering Same” (Vanderbilt University, priority 2015, published 2022).
Values joined by “and” are separate entries in the source; they are usually repeats but may differ in a detail not shown here. Equal entries are not always repeated. Where two headings read alike, the source gives them in different places.

Legend:
[1] = test system: post-operative CF-LVAD patients; experiment: Tolerability / safety primary end point of inhaled milrinone (arrhythmias, hypotension, hypersensitivity, death); assay type: in vivo; details: for Death while receiving inhaled milrinone therapy: 10 patients
Procedure: (§1) Methods. The present inventors evaluated fixed dose nebulized iMil delivered into a ventilator circuit for 24 hours in 10 post-operative CF-LVAD (HeartMate-II=10) patients. Tolerability (arrhythmias, hypotension and hypersensitivity reaction), efficacy (hemodynamic), pharmacokinetics (plasma milrinone levels) and cost data were collected.
The primary end point was safety, which included documentation of 1) new atrial arrhythmias, lasting greater than 30 seconds or resulting in hemodynamic instability (mean arterial pressure (MAP)<60 mmHg or requiring medical intervention) 2) sustained ventricular tachycardia (VT) lasting greater than 30 seconds, not related to an LVAD suction event or any ventricular arrhythmia resulting in hemodynamic instability (sustained hypotension with a MAP <60 mmHg not related to secondary causes such as acute blood loss or tamponade) and 3) hypersensitivity reaction to milrinone leading to systemic hypotension (MAP<60 mmHg or requiring medical intervention), bronchospasm or rash 4) Death by 30 days.

[2] = Characterization of inhaled milrinone: nebulization degradation profile (mass spectrometry); assay type: physicochemical; details: vibrating mesh nebulizer connected to a mechanical ventilator circuit
Procedure: Inhaled milrinone validation studies were performed in order to characterize inhaled milrinone aerosol particle size, evaluate nebulization degradation profile, and quantify drug delivery using a vibrating mesh nebulizer connected to a mechanical ventilator circuit. […] A pharmaceutical grade impactor was used to determine median aerodynamic particle size and HPLC was used to determine the amount of milrinone collected at the distal end of the experimental endotracheal tube [15]. Based on this analysis, we prepared a solution of milrinone diluted in 0.9% saline to a final concentration of 0.5 mg/ml to be delivered via continuous infusion by an Alaris® infusion pump set at a fixed rate of 12 ml/hr connected to an Areogen Solo (Aeroneb,® Galway, Ireland) vibrating mesh nebulizer and Aeroneb Pro-X nebulizer control unit (Aerogen, Galway, Ireland). The nebulizer was connected to a mechanical ventilator (Servo-I, Maquet Inc. Wayne N.J.) with a dual heated wire ventilator circuit (Teleflex Hudson RCI, Research Triangle Park, N.C.) proximal to the heated humidifier (Teleflex Hudson Neptune, Research Triangle Park, N.C.). Despite continuous nebulization, delivery of the aerosolized drug product occurred in an ‘intermittent-continuous’ fashion based on the mechanical ventilator respiratory rate. All inhaled milrinone product was administered by a licensed respiratory therapist.

[3] = Plasma milrinone levels (HPLC) during inhaled milrinone after CF-LVAD implantation; assay type: in vivo, human; details: for concentration at 0 h / concentration at 1 h / concentration at 4 h / concentration at 8 h / concentration at 12 h / concentration at 24 h: human, plasma, inhaled, 6 mg/h
Procedure: Blood samples to determine plasma milrinone levels were obtained at baseline, 1, 4, 8, 12 and 24 hours after initiation of inhaled milrinone. Plasma milrinone levels were determined by ultra-violet high liquid chromatography (HPLC) method [14].
Delivery of inhaled milrinone was initiated five minutes before the first weaning attempt from cardiopulmonary bypass after LVAD implantation in the operating suite. […] Prior to initiation of inhaled milrinone, blood samples were obtained and analyzed for baseline plasma levels of milrinone. Patient arrival in the ICU immediately after LVAD implantation was defined as ‘time zero.’ Further blood samples to determine plasma milrinone levels were obtained at 1, 4, 8, 12 and 24 hours after arrival to the ICU. […] Patients received inhaled milrinone for a maximum of 24 hours or until the patient was extubated (if less than 24 hours).

[4] = test system: post-operative CF-LVAD patients; experiment: Echocardiographic parameters before vs after LVAD implantation with inhaled milrinone; assay type: in vivo, human
Procedure: Secondary end points were designed to assess the efficacy, cost effectiveness and pharmacokinetic profile of inhaled milrinone therapy. […] Right heart catheterization was performed during the hospitalization before LVAD implantation and included the following parameters: right atrial pressure (RAP), mean pulmonary artery pressure (mPAP), pulmonary artery systolic pressure (PASP), cardiac index (CI) and cardiac output (CO). […] Echocardiographic parameters included: left ventricular end diastolic volume (LVEDV), left ventricular end diastolic dimension (LVEDd), cardiac output (CO), PASP, qualitative RV function, and tricuspid annular plane systolic excursion (TAPSE). Delivery of inhaled milrinone was initiated five minutes before the first weaning attempt from cardiopulmonary bypass after LVAD implantation in the operating suite. Intraoperative transesophageal echocardiography was performed and analyzed by a single cardiac anesthesiologist, certified in the interpretation of intraoperative echocardiography. Prior to initiation of inhaled milrinone, blood samples were obtained and analyzed for baseline plasma levels of milrinone. […] All patients underwent a transthoracic echocardiogram 48-72 hours after cessation of inhaled milrinone.

[5] = literature refs [17, 18]; cited from earlier work
[6] = test system: post-operative CF-LVAD patients; experiment: Perioperative hemodynamics (right heart catheterization / indwelling pulmonary artery catheter) with inhaled milrinone; assay type: in vivo, human
Procedure: as §1
(§2) Secondary end points were designed to assess the efficacy, cost effectiveness and pharmacokinetic profile of inhaled milrinone therapy. Efficacy endpoints included hospital and intensive care unit (ICU) length of stay, days on inotropes, mortality at 30 days and changes in right ventricular stroke work index (RSVWi) and right heart catheterization and echocardiographic parameters from baseline values. Right heart catheterization was performed during the hospitalization before LVAD implantation and included the following parameters: right atrial pressure (RAP), mean pulmonary artery pressure (mPAP), pulmonary artery systolic pressure (PASP), cardiac index (CI) and cardiac output (CO). Echocardiographic data was collected retrospectively from echocardiograms closest to LVAD implantation date (studies performed >1 month before surgery were not included) and prospectively obtained within 72 hours after LVAD implantation. Echocardiographic parameters included: left ventricular end diastolic volume (LVEDV), left ventricular end diastolic dimension (LVEDd), cardiac output (CO), PASP, qualitative RV function, and tricuspid annular plane systolic excursion (TAPSE).
Delivery of inhaled milrinone was initiated five minutes before the first weaning attempt from cardiopulmonary bypass after LVAD implantation in the operating suite. Intraoperative transesophageal echocardiography was performed and analyzed by a single cardiac anesthesiologist, certified in the interpretation of intraoperative echocardiography. Prior to initiation of inhaled milrinone, blood samples were obtained and analyzed for baseline plasma levels of milrinone. Patient arrival in the ICU immediately after LVAD implantation was defined as ‘time zero.’ Further blood samples to determine plasma milrinone levels were obtained at 1, 4, 8, 12 and 24 hours after arrival to the ICU. Hemodynamic values from indwelling pulmonary artery catheter and routine vital signs were also obtained at 1, 4, 8, 12 and 24 hour intervals. Patients received inhaled milrinone for a maximum of 24 hours or until the patient was extubated (if less than 24 hours). Final hemodynamic values were obtained 1 hour after extubation or cessation of inhaled milrinone therapy. All patients underwent a transthoracic echocardiogram 48-72 hours after cessation of inhaled milrinone.

[7] = test system: post-operative CF-LVAD patients; experiment: Hospital and ICU length of stay, days on inotropes; assay type: in vivo, human; details: inhaled milrinone group
Procedure: as §2

[8] = while on inhaled milrinone therapy, p<0.009

Cc1[nH]c(=O)c(C#N)cc1-c1ccncc1 [inhaled milrinone, milrinone]
Death while receiving inhaled milrinone therapy [1]: No deaths occurred
Death while receiving inhaled milrinone therapy ([1]; listed as iMil): not observed
Ventricular tachycardia events, number (%) ([1]; human, in vivo): 3 (30%)
Non-sustained VT, number of patients/events ([1]; human, in vivo, 24 h): 1
Sustained VT, number of patients/events ([1]; human, in vivo, 24 h): 2
Deaths in the study group 30 days after CF-LVAD implantation ([1]; institutional 30 day death rate 12% (12/102), p=0.60): 0/10
Rate of ventricular arrhythmias during inhaled milrinone therapy ([1]; n=3 of 10, INTERMACS data base 36%, p=0.99): 30%
Patients requiring veno-arterial ECMO support ([1]; within hours of LVAD implantation, no absolute cause identified): 1
New drug formation or degradation products after nebulization (mass spectrometry) [2]: did not identify new drug formation or degradation products
Mean plasma milrinone levels at baseline ([3]; baseline, fixed dose nebulized iMil, 10 post-operative CF-LVAD patients): 74.2 ± 35.4 ng/mL
concentration at 0 h ([3]; Table 3 mean of patients, 0 hrs, read-out: Plasma milrinone level, Mean, 0 hrs): 114 ng/mL
concentration at 1 h ([3]; Table 3 mean of patients, 1 hrs, read-out: Plasma milrinone level, Mean, 1 hrs): 133 ng/mL
concentration at 4 h ([3]; Table 3 mean of patients, 4 hrs, read-out: Plasma milrinone level, Mean, 4 hrs): 149 ng/mL
concentration at 8 h ([3]; Table 3 mean of patients, 8 hrs, read-out: Plasma milrinone level, Mean, 8 hrs): 213 ng/mL
concentration at 12 h ([3]; Table 3 mean of patients, 12 hrs, read-out: Plasma milrinone level, Mean, 12 hrs): 176 ng/mL
concentration at 24 h ([3]; Table 3 mean of patients, 24 hrs, read-out: Plasma milrinone level, Mean, 24 hrs): 173 ng/mL
concentration at 0 h ([3]; Table 3 median of patients, 0 hrs, read-out: Plasma milrinone level, Median, 0 hrs): 75 ng/mL
concentration at 1 h ([3]; Table 3 median of patients, 1 hrs, read-out: Plasma milrinone level, Median, 1 hrs): 114 ng/mL
concentration at 4 h ([3]; Table 3 median of patients, 4 hrs, read-out: Plasma milrinone level, Median, 4 hrs): 117 ng/mL
concentration at 8 h ([3]; Table 3 median of patients, 8 hrs, read-out: Plasma milrinone level, Median, 8 hrs): 227 ng/mL
concentration at 12 h ([3]; Table 3 median of patients, 12 hrs, read-out: Plasma milrinone level, Median, 12 hrs): 160 ng/mL
concentration at 24 h ([3]; Table 3 median of patients, 24 hrs, read-out: Plasma milrinone level, Median, 24 hrs): 137 ng/mL
concentration at 1 h ([3]; 1 hour, read-out: Mean plasma milrinone levels at 1 hour): 111 ± 70.9 ng/mL
concentration at 4 h ([3]; 4 hour, read-out: Mean plasma milrinone levels at 4 hour): 136 ± 41.5 ng/mL
concentration at 8 h ([3]; 8 hour, read-out: Mean plasma milrinone levels at 8 hour): 205 ± 86.7 ng/mL
concentration at 12 h ([3]; 12 hour, read-out: Mean plasma milrinone levels at 12 hour): 177 ± 61.3 ng/mL
concentration at 24 h ([3]; 24 hour, read-out: Mean plasma milrinone levels at 24 hour): 188 ± 106 ng/mL
Plasma milrinone level, 0 hrs ([3]; individual patients 1-10, 0 hrs, inhaled milrinone 0.5 mg/ml at 12 ml/hr, prior IV milrinone stopped 6 h (Patient 1) or >12 h before surgery): 69.93 ng/mL and 65.54 ng/mL and 87.08 ng/mL and 138.22 ng/mL and 392.92 ng/mL and 20.85 ng/mL and 80.03 ng/mL and 57.67 ng/mL
Plasma milrinone level, 1 hrs ([3]; individual patients 1-10, 1 hrs, continuous inhaled milrinone 0.5 mg/ml at 12 ml/hr): 239.86 ng/mL and 115.38 ng/mL and 106.94 ng/mL and 111.96 ng/mL and 12.54 ng/mL and 157.04 ng/mL and 326.72 ng/mL and 81.31 ng/mL and 18.53 ng/mL and 158.4 ng/mL
Plasma milrinone level, 4 hrs ([3]; individual patients 1-10, 4 hrs, continuous inhaled milrinone): 113.74 ng/mL and 112.71 ng/mL and 114.96 ng/mL and 92.16 ng/mL and 112.06 ng/mL and 188.04 ng/mL and 267.11 ng/mL and 154.31 ng/mL and 118.34 ng/mL and 216.26 ng/mL
Plasma milrinone level, 8 hrs ([3]; individual patients 1-10, 8 hrs, continuous inhaled milrinone): 268.28 ng/mL and 115.66 ng/mL and 134 ng/mL and 273.14 ng/mL and 91.67 ng/mL and 349.39 ng/mL and 284.52 ng/mL and 158.8 ng/mL and 197.89 ng/mL and 255.72 ng/mL
Plasma milrinone level, 12 hrs ([3]; individual patients 1-10, 12 hrs, continuous inhaled milrinone): 133.77 ng/mL and 152.27 ng/mL and 248.58 ng/mL and 254.31 ng/mL and 89.91 ng/mL and 167.3 ng/mL and 153.12 ng/mL and 205.26 ng/mL
Plasma milrinone level, 24 hrs ([3]; individual patients 1-10, 24 hrs, continuous inhaled milrinone): 117.04 ng/mL and 364.15 ng/mL and 101.94 ng/mL and 100.88 ng/mL and 156.98 ng/mL and 197.73 ng/mL
Plasma milrinone levels during inhaled milrinone therapy (within the accepted therapeutic milrinone range) ([3]; inhaled milrinone therapy, statement in words): 100 to 300 ng/mL
Qualitative RV function after LVAD implantation vs pre-LVAD implant ([4]; p=0.347): not significantly different
TAPSE after LVAD implantation vs pre-LVAD implant ([4]; p=0.846): not significantly different
LVED volume (echocardiography) after LVAD implantation vs pre-LVAD implant [4, 8]: significant decreases
LVIDd (echocardiography) after LVAD implantation vs pre-LVAD implant [4, 8]: significant decreases
PASP (echocardiography) after LVAD implantation vs pre-LVAD implant [4, 8]: significant decreases
Accepted therapeutic range of plasma milrinone [5]: 100 to 300 ng/mL
Right Atrial Pressure, mean, Post milrinone ([6]; 1 hour after cessation of inhaled milrinone, Pre-VAD RHC 13.75): 25.75 mmHg
Mean Pulmonary Artery Pressure, mean, Post milrinone ([6]; 1 hour after cessation, Pre-VAD RHC 39.5): 27 mmHg
Pulmonary Artery Systolic Pressure, mean, Post milrinone ([6]; 1 hour after cessation, Pre-VAD RHC 56.33): 38.75 mmHg
Right Atrial Pressure, mean, ICU arrival ([6]; ICU arrival after LVAD implantation, inhaled milrinone started before weaning from bypass, Pre-VAD RHC 13.75): 13.33 mmHg
Mean Pulmonary Artery Pressure, mean, ICU arrival ([6]; ICU arrival, Pre-VAD RHC 39.5): 28.5 mmHg
Pulmonary Artery Systolic Pressure, mean, ICU arrival ([6]; ICU arrival, Pre-VAD RHC 56.33): 36.00 mmHg
Right Atrial Pressure, Mean on milrinone ([6]; during inhaled milrinone, Pre-VAD RHC 13.75): 13.53 mmHg
Mean Pulmonary Artery Pressure, Mean on milrinone ([6]; during inhaled milrinone, Pre-VAD RHC 39.5): 25.88 mmHg
Pulmonary Artery Systolic Pressure, Mean on milrinone ([6]; during inhaled milrinone, Pre-VAD RHC 56.33): 36.25 mmHg
Invasive mean pulmonary artery pressure from baseline to during iMil therapy ([6]; p=0.017): improved
RVSWi, mean, 1 hour after milrinone cessation ([6]; preoperative mean 571, p=0.179): 383 mmHg-mL/m^2
RVSWi, median, 1 hour after milrinone cessation ([6]; preoperative median 453, p=0.179): 326 mmHg-mL/m^2
Median ICU length of stay ([7]; institutional 5 days, p=0.49): 5 days
Median total days on inotrope support ([7]; institutional 6 days, p=0.08): 9 days
Median total hospital length of stay ([7]; institutional 28 days, p=0.26): 33 days
